Laboratory results from patent US4405609A, “Combination and method for increasing feed utilization efficiency in ruminants” (Eli Lilly and Company, priority 1982, dated 1983).

Columns and labels:
rumen fluid = assay: in vitro rumen fluid fermentor assay of propionate production; format: cell-based, steers; details: ± SD
Excerpt: Rumen fluid was obtained from steers which had surgically-installed fistula openings into the rumen. The steers were maintained on a high-grain ration such as the one described above.
A sample of rumen fluid was strained through four layers of cheese cloth and the eluate was collected in vacuum bottles. The particulate matter retained by the cheese cloth was resuspended in enough physiological buffer to return it to the original volume of the rumen fluid, and the eluate was strained again. The buffer utilized is described by Cheng et al., J. Dairy Sci., 38, 1225 (1955).
The two eluates were combined in a separatory funnel and allowed to stand until any remaining particulate matter separated to the top. The clear liquid layer then was removed, diluted with an equal volume of the above-mentioned buffer, and the pH of the solution was adjusted to 7.0.
Fermenter flasks were then changed with the rumen liquor thus prepared. Two fermentor flasks were used per each treatment group. The fermentor flasks were allowed to stand for four days for equilibration, and then measurements of proprionate production were made daily for six days in order to establish a control. Measurements were made by gas chromatographic methods. The fermenter flasks were then fed 20 grams per day of a finely ground ration composed of 20 percent high concentrate ration and 80 percent alfalfa hay. The individual feed efficiency enhancers, and the composition of such enhancers provided by this invention, were added to the feed and dried thereon prior to introduction of the feed ration into the fermentor flasks. The feed ration was introduced into the flasks approximately two times each day. After the initial administration of active ingredient, two days were allowed for reequilibration, and then the volatile fatty acid (VFA) production in each flask was monitored by gas chromatography for five days.

[1] = system: Hereford crossbred steers; assay: 140-day monensin/actaplanin feed study, corn silage diet; format: in vivo
Protocol: The animals were divided into a control group and into eleven test groups. All animals were fed a corn silage diet ad libitum once daily throughout the 140-day study, plus two pounds per head per day of the following cattle supplement:
Test compounds were formulated as a premix with 50 percent by weight of ground corn cobs and 48 percent by weight of ground corn. The premixes were added to the corn silage feed rations in amounts necessary to provide the desired doses of active ingredients to the test animals. The data are presented as the average for the entire group of animals receiving a particular dose of active agent.
In the foregoing table, the Feed Efficiency value is calculated by dividing the average amount of feed consumed (pounds of dry matter intake) by the average daily gain in weight (in pounds). Ideally, the animals will gain more weight on less feed intake. Accordingly, the most improvement in feed utilization efficiency is represented by smaller numbers. […] The optimum in this experiment was 10 g./T. of monensin and 40 g./T. of actaplanin which produced a 13.5% improvement in feed efficiency over untreated controls.

feeder calves = assay: in vivo evaluation of monensin and actaplanin in feeder calves on high-grain ration; details: 30 grams per ton of each agent in feed
Excerpt: For example, in a typical in vivo evaluation of the combination of monensin and actaplanin, feeder calves were fed a high-grain ration such as that recited above. Fifteen control animals received the feed ration with no feed efficiency enhancer additive. Another group of fifteen calves received the feed ration containing monensin at 30 grams per ton, while a third group of fifteen animals received the feed ration with actaplanin at 30 grams per ton. A combination of 30 grams per ton of monensin and 30 grams per ton of actaplanin was administered as a feed additive to the ration consumed by a fourth group of fifteen test animals. […] The feed efficiency of such control group, calculated as the pounds of feed consumption required for one pound of animal weight gain, was 13.49.

steers [2] = assay: further analysis of feed efficiency data: expected versus observed change; format: in vivo
Excerpt: When the components are utilized in amounts that are about their respective optimal dose levels when used alone, the combination causes an unexpected increase in feed utilization efficiency, which is believed the result of continued unexpected interaction. The results of this further analysis of data is presented below:
In the foregoing table, Δ is the change in feed efficiency of the treated group over the nontreated group. […] The change in efficiency is thus 0.14. The term "EΔ" is the change in efficiency expected with a combination, and is arrived at by adding the Δ values of the individual components at the appropriate dose levels. The term "OΔ" is the change in efficiency over nontreated controls actually observed with animals receiving the combination.

steers [3] = assay: combined data of the three steer studies, percentage response versus untreated controls; format: in vivo
Excerpt: The following figures report such data expressed as a percentage response when compared with untreated control animals.

[4] = dose giving largest increase in propionate production
Excerpt: The compositions provided herein comprise a polyether as defined above and a glycopeptide as defined above. The respective components will be present on a weight basis in a ratio of about 1 to about 10 parts polyether together with about 1 to about 10 parts glycopeptide. For example, a polyether such as narasin will be employed at a concentration level of about 1 to about 20 grams per ton of ruminant feedstuff, together with a glycopeptide such as avoparcin or actaplanin at a concentration level of about 5 to about 50 grams per ton of ruminant feedstuff. A particularly preferred embodiment of the invention is a combination of narasin at about 2 to about 10 grams per ton of feedstuff, and actaplanin at about 5 to about 20 grams per ton. […] Typically, the maximal doses of each component to be employed in accordance with the present invention are substantially the same as the maximal doses for effective growth promotion and feed utilization enhancement by the individual components. […] Similarly, actaplanin at a dose of about 30 grams per ton of feed effects the largest increase in propionate production observed with that agent. […]

[5] = system: Hereford crossbred steers; assay: 140-day narasin/actaplanin feed study; format: in vivo
Excerpt: Another study was designed to show the unexpected interaction of the polyether narasin in combination with actaplanin. Two hundred forty Hereford crossbred steers averaging about 700 pounds and about 18 months of age were employed. The animals were fed corn silage and high moisture corn, plus two pounds per head per day of the following cattle supplement:
The treatments comprised three dose levels of narasin (0, 4 and 12 g./T.) and four dose levels of actaplanin (0, 10, 20 and 40 g./T.). The animals were randomly assigned to four blocks of twelve partially sheltered pens, each with five animals per pen. The treatments were allotted at random within the four 12-pen blocks such that each treatment was represented in each block. Each of the twelve treatments was replicated four times.

ruminants = details: Raun et al., J. Ani. Sci. 43, 670 (1976); cited from earlier work
[6] = system: Hereford crossbred steers; assay: 154-day trial of monensin (30 g./T.) with actaplanin; format: in vivo
Excerpt: In another study, two hundred Hereford crossbred steers averaging about 565 pounds were employed in a 154-day trial to determine the efficacy of combinations of monensin (at 30 g./T.) and actaplanin (at 20 g./T., 40 g./T. and 60 g./T.). The steers were fed a corn silage or corn-soya-cob roughage diet ad libitum once a day, together with a cattle supplement. The animals were divided into five treatment groups of forty steers each. These treatment groups were maintained in open pens; five animals per pen so that each treatment group comprised eight pens. Individual treatments were then assigned at random to each of the eight pens so that each treatment was replicated […] within each ration group.

[7] = monensin 0, actaplanin 10 grams/Ton
[8] = monensin 0, actaplanin 20 grams/Ton
[9] = monensin 0, actaplanin 40 grams/Ton
[10] = polyether 0, actaplanin 10 g./T.
[11] = polyether 0, actaplanin 20 g./T.
[12] = polyether 0, actaplanin 40 g./T.
[13] = monensin 10, actaplanin 0 grams/Ton
[14] = monensin 30, actaplanin 0 grams/Ton

## actaplanin
Rumen fluid; Monensin 0 PPM, Actaplanin 1 PPM
  Propionate Production: 13.0 ± 2.0 mM/24 hours
Rumen fluid; Monensin 0 PPM, Actaplanin 4 PPM
  Propionate Production: 19.9 ± 3.0 mM/24 hours
[1]; [7]
  Average Daily Dry Matter Intake: 12.86 lbs
  Average Daily Dry Matter Intake % change from control: +4.1%
  Average Daily Weight Gain: 2.44 lbs
  Average Daily Weight Gain % change over control: +9.4%
  Feed Efficiency: 5.28
  Feed Efficiency % change from control: -4.9%
[1]; [8]
  Average Daily Dry Matter Intake: 12.86 lbs
  Average Daily Dry Matter Intake % change from control: +4.1%
  Average Daily Weight Gain: 2.37 lbs
  Average Daily Weight Gain % change over control: +6.3%
  Feed Efficiency: 5.43
  Feed Efficiency % change from control: -2.0%
[1]; [9]
  Average Daily Dry Matter Intake: 12.47 lbs
  Average Daily Dry Matter Intake % change from control: +1.0%
  Average Daily Weight Gain: 2.39 lbs
  Average Daily Weight Gain % change over control: +7.2%
  Feed Efficiency: 5.22
  Feed Efficiency % change from control: -6.1%
Feeder calves
  Average Daily Weight Gain: 1.38 pounds
  feed efficiency (pounds of feed consumption required for one pound of animal weight gain): 12.36
Steers [2]; actaplanin 10 g./T. alone
  Δ, change in feed efficiency of the treated group over the nontreated group: 0.09
Steers [2]; actaplanin 20 g./T. alone
  Δ, change in feed efficiency of the treated group over the nontreated group: 0.28
Steers [2]; actaplanin 40 g./T. alone
  Δ, change in feed efficiency of the treated group over the nontreated group: 0.36
Steers [2]; monensin 0, actaplanin 10 g./T.
  Feed efficiency (feed to gain ratio): 6.00
Steers [2]; monensin 0, actaplanin 20 g./T.
  Feed efficiency (feed to gain ratio): 5.81
Steers [2]; monensin 0, actaplanin 40 g./T.
  Feed efficiency (feed to gain ratio): 5.73
Steers [3]; [10]
  Combined Daily Gain Data, percentage response compared with untreated control: 5.5 percentage
  Combined Feed Efficiency Data, percentage response compared with untreated control: 1.3 percentage
Steers [3]; [11]
  Combined Daily Gain Data, percentage response compared with untreated control: 6.6 percentage
  Combined Feed Efficiency Data, percentage response compared with untreated control: 4.4 percentage
Steers [3]; [12]
  Combined Daily Gain Data, percentage response compared with untreated control: 6.3 percentage
  Combined Feed Efficiency Data, percentage response compared with untreated control: 5.8 percentage
[4]
  dose that effects the largest increase in propionate production observed with that agent: about 30 grams per ton of feed
[5]; actaplanin alone at 20 g./T.
  feed intake (in words): slight decrease in feed intake
  improved daily gains: 5.9%
[5]; narasin 0, actaplanin 10 g./T.
  Average Daily Dry Matter Intake: 16.47 Pounds
  Average Daily Weight Gain: 2.54 Pounds
  Average Feed Efficiency: 6.47
[5]; narasin 0, actaplanin 20 g./T.
  Average Daily Dry Matter Intake: 16.51 Pounds
  Average Daily Weight Gain: 2.66 Pounds
  Average Feed Efficiency: 6.19
[5]; narasin 0, actaplanin 40 g./T.
  Average Daily Dry Matter Intake: 16.02 Pounds
  Average Daily Weight Gain: 2.59 Pounds
  Average Feed Efficiency: 6.18

## monensin
Rumen fluid; Monensin 0.5 PPM, Actaplanin 0 PPM
  Propionate Production: 14.2 ± 1.7 mM/24 hours
Rumen fluid; Monensin 3 PPM, Actaplanin 0 PPM
  Propionate Production: 18.4 ± 3.2 mM/24 hours
[1]; [13]
  Average Daily Dry Matter Intake: 13.54 lbs
  Average Daily Dry Matter Intake % change from control: +9.6%
  Average Daily Weight Gain: 2.45 lbs
  Average Daily Weight Gain % change over control: +9.9%
  Feed Efficiency: 5.52
  Feed Efficiency % change from control: -0.3%
[1]; [14]
  Average Daily Dry Matter Intake: 12.94 lbs
  Average Daily Dry Matter Intake % change from control: +4.8%
  Average Daily Weight Gain: 2.39 lbs
  Average Daily Weight Gain % change over control: +7.2%
  Feed Efficiency: 5.42
  Feed Efficiency % change from control: -2.2%
Feeder calves
  Average Daily Weight Gain: 1.42 pounds
  feed efficiency (pounds of feed consumption required for one pound of animal weight gain): 12.05
Steers [2]; monensin 10 g./T. alone
  Δ, change in feed efficiency of the treated group over the nontreated group: 0.14
Steers [2]; monensin 10 g./T., actaplanin 0
  Feed efficiency (feed to gain ratio): 5.95
Steers [2]; monensin 30 g./T. alone
  Δ, change in feed efficiency of the treated group over the nontreated group: 0.39
Steers [2]; monensin 30 g./T., actaplanin 0
  Feed efficiency (feed to gain ratio): 5.70
ruminants
  dosage level of maximal improvement in feed efficiency: about 33 ppm
  dose level of maximal improvement in feed efficiency: about 30 grams per ton of feed
[6]; [14]
  Average Daily Dry Matter Intake: 16.79 lbs
  Average Daily Weight Gain: 2.41 lbs
  Feed Efficiency: 7.01
[6]; monensin alone (30 g./T.)
  increase in feed efficiency versus control: 6.4%

## CC[C@@H](C(=O)O)[C@@H]1O[C@@H]([C@@H](C)[C@H](O)[C@H](C)C(=O)[C@H](CC)[C@H]2O[C@]3(C=C[C@@H](O)[C@]4(CC[C@@](C)([C@H]5CC[C@](O)(CC)[C@H](C)O5)O4)O3)[C@H](C)C[C@@H]2C)[C@@H](C)C[C@@H]1C [narasin]
[5]; narasin 4, actaplanin 0 g./T.
  Average Daily Dry Matter Intake: 16.41 Pounds
  Average Daily Weight Gain: 2.53 Pounds
  Average Feed Efficiency: 6.46
[5]; narasin 12, actaplanin 0 g./T.
  Average Daily Dry Matter Intake: 15.52 Pounds
  Average Daily Weight Gain: 2.52 Pounds
  Average Feed Efficiency: 6.18
[5]; narasin alone at 12 g./T.
  decrease in feed intake versus untreated controls: 7.2%
